Experimental data: patent publication US9745325B2, “Fused heterocyclic compound” (Takeda Pharmaceutical Company Limited, priority 2014, dated 2017)

Experiments:
CDK8/CycC = target: T1, CDK8/CycC (Homo sapiens, UniProt P49336); assay: CDK8 inhibitory activity (Kinase Tracer-236 / Eu-anti-GST fluorescence assay); format: binding; design: Percent inhibition of CDK8 activity (%): concentration or dose not given beside the values; details: test compound concentration given as '1 1.1.1\4' [sic]
T1 construct: purchased Carna Biosciences
Method: (§1) The compound of the present invention was evaluated for its CDK8 inhibitory activity and CDK19 inhibitory activity by the following method. […] The primary diluted solution was dispensed in the amount of 2 μL/well to a 384-well plate, and then, a mixed solution of Eu^3+ Cryptate conjugated mouse monoclonal antibody anti-glutathione S-transferase (Cisbio) diluted 267-fold with an assay buffer and 60 nM Kinase Tracer-236 (Life technologies) was added thereto at 2 μL/well. […] After the addition, the plate was left standing at room temperature for 1 hour, and then, the fluorescence intensity (excitation wavelength 320 nm, fluorescence wavelength 615 nm, 665 nm, delay time 50 μsec) was measured using ann EnVision plate reader (PerkinElmer). The percent inhibition of CDK8 or CDK19 activity by the test compound can be calculated according to the following formula, wherein the fluorescence intensity of a reaction solution in the absence of compound is defined as the control, and the fluorescence intensity of a reaction solution in the presence of 10 μM of control compound is defined as the blank.

CDC2L6/CycC (CDK19) = target: T2, CDC2L6/CycC (CDK19) (Homo sapiens, UniProt Q9BWU1); assay: CDK19 inhibitory activity (Kinase Tracer-236 / Eu-anti-GST fluorescence assay); format: binding; design: Percent inhibition of CDK19 activity (%): concentration or dose not given beside the values; details: test compound concentration given as '1 1.1.1\4' [sic]
T2 construct: purchased Carna Biosciences Inc
Method: as §1

[1] = tested on: human multiple myeloma RPMI8226 cells; assay: Inhibitory activity against human multiple myeloma RPMI8226 cell growth (CellTiter-Glo); format: cell-based; details: Homo sapiens, RPMI-8226, 192 h, 1 μM test compound, cultured for 8 days; read-out: Percent inhibition of RPMI8226 cell growth (%)
Method: The compound of the present invention was evaluated for its inhibitory activity against human multiple myeloma RPMI8226 cell growth by the following method.
A suspension of human multiple myeloma RPMI8226 cells (purchased from the Health Protection Agency) was inoculated at 40 μL (300 cells/well) to a 384-well plate and cultured at 37° C. for 1 day in a 5% CO2 incubator. After the culture, each test compound solution was added thereto at a test concentration of 1 μM using TECAN D300, and the cells were further cultured for 8 days. After the culture, CellTiter-Glo™ Luminescent Cell Viability Assay reagent (Promega) was added at 40 μL/well to a 384-well plate, and the amount of luminescence was measured using a luminometer. Inhibitory activity against human multiple myeloma RPMI8226 cell growth (percent inhibition (%)) of the test compound was calculated according to the following formula, which is based on the hypothesis that the amount of residual ATP reflects the number of cells. In this formula, 100% control represents the amount of luminescence from a well with only 0.1% DMSO added. Percent inhibition (%)=(1−(amount of luminescence of the test compound)÷(100% control))×100

T1 sequence (P49336 whole entry): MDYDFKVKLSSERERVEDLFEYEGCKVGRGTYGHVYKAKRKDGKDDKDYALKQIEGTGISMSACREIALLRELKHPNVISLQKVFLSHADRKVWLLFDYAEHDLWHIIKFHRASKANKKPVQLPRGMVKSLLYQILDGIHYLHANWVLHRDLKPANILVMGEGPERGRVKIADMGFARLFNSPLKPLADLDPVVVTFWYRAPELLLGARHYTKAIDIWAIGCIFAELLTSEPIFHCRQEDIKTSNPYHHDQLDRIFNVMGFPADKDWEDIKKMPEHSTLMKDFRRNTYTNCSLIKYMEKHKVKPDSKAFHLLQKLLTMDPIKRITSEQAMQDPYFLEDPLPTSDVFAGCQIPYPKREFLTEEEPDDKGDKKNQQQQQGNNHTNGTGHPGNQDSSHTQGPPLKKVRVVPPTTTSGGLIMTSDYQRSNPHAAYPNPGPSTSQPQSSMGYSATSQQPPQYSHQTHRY
T1 sequence (P24863 whole entry partner): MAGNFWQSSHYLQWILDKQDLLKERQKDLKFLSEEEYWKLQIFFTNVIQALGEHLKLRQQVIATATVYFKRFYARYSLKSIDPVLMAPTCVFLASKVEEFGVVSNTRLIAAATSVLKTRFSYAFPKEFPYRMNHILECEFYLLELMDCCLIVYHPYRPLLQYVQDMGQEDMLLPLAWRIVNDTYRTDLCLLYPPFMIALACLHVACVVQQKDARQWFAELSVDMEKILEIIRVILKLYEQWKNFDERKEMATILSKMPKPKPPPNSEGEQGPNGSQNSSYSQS
T2 sequence (Q9BWU1 whole entry): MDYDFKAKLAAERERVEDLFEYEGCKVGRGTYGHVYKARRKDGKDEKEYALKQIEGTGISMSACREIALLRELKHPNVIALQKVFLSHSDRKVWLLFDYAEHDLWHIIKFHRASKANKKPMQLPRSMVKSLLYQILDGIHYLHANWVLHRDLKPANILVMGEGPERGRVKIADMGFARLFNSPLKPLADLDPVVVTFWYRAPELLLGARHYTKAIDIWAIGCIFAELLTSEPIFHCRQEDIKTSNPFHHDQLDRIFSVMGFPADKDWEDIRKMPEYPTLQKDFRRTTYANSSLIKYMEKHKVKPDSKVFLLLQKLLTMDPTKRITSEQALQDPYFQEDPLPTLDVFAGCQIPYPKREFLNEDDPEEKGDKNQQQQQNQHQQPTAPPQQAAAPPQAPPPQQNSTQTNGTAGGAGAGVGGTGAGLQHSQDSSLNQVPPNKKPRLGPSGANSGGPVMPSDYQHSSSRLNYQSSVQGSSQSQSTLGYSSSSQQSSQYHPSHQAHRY
T2 sequence (P24863 whole entry partner): as the sequence (P24863 whole entry partner) above

Percent inhibition of CDK8 activity (%) (CDK8/CycC) | Percent inhibition of CDK19 activity (%) (CDC2L6/CycC (CDK19)) | Compound | inhibition at 1 µM [1]
105% | 100% | Cc1nn(C)cc1Oc1sc(C(N)=O)c2c1-c1sncc1CC2 [Example 47, 8-((1,3-Dimethyl-1H-pyrazol-4-yl)oxy)-4,5-dihydrothieno[3,4-g][1,2] benzothiazole-6-carboxamide] | 57%
99% | 99% | CC(C)S(=O)(=O)c1ccc(Oc2sc(C(N)=O)c3c2-c2sncc2CC3)cc1 [Example 50, 8-(4-(isopropylsulfonyl)phenoxy)-4,5-dihydrothieno[3,4-g][1,2]benzothiazole-6-carboxamide] | 58%
100% | 99% | CS(=O)(=O)c1ccc(Oc2sc(C(N)=O)c3c2-c2sncc2CC3)cc1 [Example 53, 8-(4-(Methylsulfonyl)phenoxy)-4,5-dihydrothieno[3,4-g][1,2]benzothiazole-6-carboxamide] | 61%
100% | 101% | Cc1ncccc1Oc1sc(C(=O)NOCc2ccccc2)c2c1-c1sncc1CC2 [Example 58, N-(Benzyloxy)-8-((2-methylpyridin-3-yl)oxy)-4,5-dihydrothieno[3,4-g][1,2] benzothiazole-6-carboxamide] | 49%
100% | 100% | Cc1ncccc1Oc1sc(C(=O)Nn2cccc2)c2c1-c1sncc1CC2 [Example 87, 8-((2-Methylpyridin-3-yl)oxy)-N-(1H-pyrrol-1-yl)-4,5-dihydrothieno [3,4-g][1,2]benzothiazole-6-carboxamide] | 48%
89% | 95% | NC(=O)c1sc(Oc2cncc(Br)c2)c2c1CCc1cnsc1-2 [Example 92, 8-((5-Bromopyridin-3-yl)oxy)-4,5-dihydrothieno[3,4-g][1,2]benzothiazole-6-carboxamide] | 58%
97% | 89% | CCOCCOc1sc(C(N)=O)c2c1-c1sncc1CC2 [Example 95, 8-(2-Ethoxyethoxy)-4,5-dihydrothieno [3,4-g][1,2]benzothiazole-6-carboxamide] | 69%
110% | 100% | Cn1cc(Oc2sc(C(N)=O)c3c2-c2sncc2CC3)cn1 [Example 96, 8-((1-Methyl-1H-pyrazol-4-yl)oxy)-4,5-dihydrothieno[3,4-g][1,2] benzothiazole-6-carboxamide] | 69%
103% | 99% | COCC(=O)Nc1ccc(Oc2sc(C(N)=O)c3c2-c2sncc2CC3)cn1 [Example 97, 8-((6-((Methoxyacetyl)amino)pyridin-3-yl)oxy)-4,5-dihydrothieno[3,4-g][1,2] benzothiazole-6-carboxamide] | 55%
103% | 100% | NC(=O)c1sc(Oc2ccc(C(=O)N3CCCC3)nc2)c2c1CCc1cnsc1-2 [Example 102, 8-((6-(Pyrrolidin-1-ylcarbonyl)pyridin-3-yl)oxy)-4,5-dihydrothieno[3,4-g][1,2] benzothiazole-6-carboxamide] | 58%
99% | 96% | CN(CCO)C(=O)c1ccc(Oc2sc(C(N)=O)c3c2-c2sncc2CC3)cn1 [Example 105] | 54%
97% | 95% | NC(=O)c1sc(Oc2ccc(C(=O)N3CCCCC3)nc2)c2c1CCc1cnsc1-2 [Example 106, 8-((6-(Piperidin-1-ylcarbonyl)pyridin-3-yl)oxy)-4,5-dihydrothieno[3,4-g][1,2] benzothiazole-6-carboxamide] | 58%

The remaining lines, values behind:

Compound | Percent inhibition of CDK8 activity (%) (CDK8/CycC) | Percent inhibition of CDK19 activity (%) (CDC2L6/CycC (CDK19)) | inhibition at 1 µM [1]
Cc1ncccc1Oc1sc(C(N)=O)c2c1-c1snnc1CC2 [Example 43, 8-((2-Methylpyridin-3-yl)oxy)-4,5-dihydrothieno[3,4-g][1,2,3]benzothiadiazole-6-carboxamide] | 103% | 93% | 49%
CCCSc1sc(C(N)=O)c2c1-c1sncc1CC2 [Example 52, 8-(Propylsulfanyl)-4,5-dihydrothieno [3,4-g][1,2]benzothiazole-6-carboxamide] | 98% | 95% | 65%
NC(=O)c1sc(Oc2ccc(S(F)(F)(F)(F)F)cc2)c2c1CCc1cnsc1-2 [Example 89] | 102% | 99% | 54%
NC(=O)c1sc(Oc2ccc(C(F)(F)F)cc2)c2c1CCc1cnsc1-2 [Example 90] | 102% | 102% | 55%
CN(C)C(=O)c1ccc(Oc2sc(C(N)=O)c3c2-c2sncc2CC3)cn1 [Example 91] | 90% | 95% | 58%
NC(=O)c1sc(Oc2ccc(N)nc2)c2c1CCc1cnsc1-2 [Example 93, 8-((6-Aminopyridin-3-yl)oxy)-4,5-dihydrothieno[3,4-g][1,2]benzothiazole-6-carboxamide] | 87% | 96% | 63%
CC(=O)Nc1ccc(Oc2sc(C(N)=O)c3c2-c2sncc2CC3)cn1 [Example 94, 8-((6-Acetamidopyridin-3-yl)oxy)-4,5-dihydrothieno[3,4-g][1,2]benzothiazole-6-carboxamide] | 90% | 97% | 63%
COCCN(C)C(=O)c1ccc(Oc2sc(C(N)=O)c3c2-c2sncc2CC3)cn1 [Example 101, 8-((6-((2-Methoxyethyl)(methyl)carbamoyl)pyridin-3-yl)oxy)-4,5-dihydrothieno[3,4-g][1,2]benzothiazole-6-carboxamide] | 106% | 95% | 65%
N#Cc1cncc(Oc2sc(C(N)=O)c3c2-c2sncc2CC3)c1 [Example 103, 8-((5-Cyanopyridin-3-yl)oxy)-4,5-dihydrothieno[3,4-g][1,2]benzothiazole-6-carboxamide] | 103% | 95% | 52%
NC(=O)c1sc(Oc2ccc(C(=O)N3CCC3)nc2)c2c1CCc1cnsc1-2 [Example 104] | 101% | 102% | 66%
CN(C(=O)C1CC1)c1ccc(Oc2sc(C(N)=O)c3c2-c2sncc2CC3)cn1 [Example 108, 8-((6-((Cyclopropylcarbonyl)(methyl)amimo)pyridin-3-yl)oxy)-4,5-dihydrothieno[3,4-g][1,2]benzothiazole-6-carboxamide] | 101% | 99% | 63%
NC(=O)c1sc(Oc2ccc(C(=O)N3CC[C@@H](O)C3)nc2)c2c1CCc1cnsc1-2 [Example 109, 8-((6-(((3R)-3-Hydroxypyrrolidin-1-yl)carbonyl)pyridin-3-yl)oxy)-4,5-dihydrothieno[3,4-g][1,2]benzothiazole-6-carboxamide] | 105% | 98% | 63%
NC(=O)c1sc(Oc2ccc(C(=O)N3CC[C@H](O)C3)nc2)c2c1CCc1cnsc1-2 [Example 110, 8-((6-(((3S)-3-Hydroxypyrrolidin-1-yl)carbonyl)pyridin-3-yl)oxy)-4,5-dihydrothieno[3,4-g][1,2]benzothiazole-6-carboxamide] | 103% | 98% | 63%
